# Data as given in patent US9936701B2, “Herbicidal compounds” (Syngenta Participations AG, priority 2013, dated 2018).
# Test system: not given
# Experiment: not given
# Settings: not given
row,SMILES,melting point [°C]
1,CCC1=C(Cl)C(=O)N(c2noc(C(C)C)c2C#N)C1O (centres unmarked) [A63],93 to 95
2,CCC1=C(Cl)C(=O)N(c2cc(C(C)(C)C#N)on2)C1O (centres unmarked) [A64],101 to 102
3,CCCC1=C(Cl)C(=O)N(c2cc(C(C)(C)C#N)on2)C1O (centres unmarked) [A65],99 to 100
4,C=CC(C)(C)c1onc(N2C(=O)C(Cl)=C(C)C2O)c1C#N (centres unmarked) [A66],150 to 152
5,CCCC1=C(Cl)C(=O)N(c2noc(C(C)(C)CC)c2C#N)C1O (centres unmarked) [A68],82 to 84

# Test system: a variety of test species
# Experiment: Pre-emergence herbicidal activity (glasshouse, sprayed one day after sowing, evaluated after 13 days)
# Type: in vivo
# Set-up: key: 5=total damage to plant; 0=no damage to plant
# Settings: ABUTH, application pre-emergence, rate 1000 g/Ha, scale 0-5
# Procedure, shortened: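 Damage was rated 13 days after treatment on a 0–5 scale (0 = no damage, 5 = total damage). Pots of seeds in standard soil were sprayed one day after sowing with an aqueous solution from an acetone/water (50:50), 0.5% Tween 20 formulation and kept at 24/16 °C day/night.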
row,SMILES,"Pre-emergence herbicidal damage score, ABUTH"
1,CCC1=C(Cl)C(=O)N(c2noc(C(C)C)c2C#N)C1O (centres unmarked) [A63],5
2,CCC1=C(Cl)C(=O)N(c2cc(C(C)(C)C#N)on2)C1O (centres unmarked) [A64],4
3,CCCC1=C(Cl)C(=O)N(c2cc(C(C)(C)C#N)on2)C1O (centres unmarked) [A65],5
4,C=CC(C)(C)c1onc(N2C(=O)C(Cl)=C(C)C2O)c1C#N (centres unmarked) [A66],5
5,CCCC1=C(Cl)C(=O)N(c2noc(C(C)(C)CC)c2C#N)C1O (centres unmarked) [A68],4

# Same assay, conditions: ALOMY, application pre-emergence, rate 1000 g/Ha, scale 0-5
row,SMILES,"Pre-emergence herbicidal damage score, ALOMY"
1,CCC1=C(Cl)C(=O)N(c2noc(C(C)C)c2C#N)C1O (centres unmarked) [A63],3
2,CCC1=C(Cl)C(=O)N(c2cc(C(C)(C)C#N)on2)C1O (centres unmarked) [A64],3
3,CCCC1=C(Cl)C(=O)N(c2cc(C(C)(C)C#N)on2)C1O (centres unmarked) [A65],3
4,C=CC(C)(C)c1onc(N2C(=O)C(Cl)=C(C)C2O)c1C#N (centres unmarked) [A66],3
5,CCCC1=C(Cl)C(=O)N(c2noc(C(C)(C)CC)c2C#N)C1O (centres unmarked) [A68],3

# Same assay, conditions: AMARE, application pre-emergence, rate 1000 g/Ha, scale 0-5
row,SMILES,"Pre-emergence herbicidal damage score, AMARE"
1,CCC1=C(Cl)C(=O)N(c2noc(C(C)C)c2C#N)C1O (centres unmarked) [A63],5
2,CCC1=C(Cl)C(=O)N(c2cc(C(C)(C)C#N)on2)C1O (centres unmarked) [A64],5
3,CCCC1=C(Cl)C(=O)N(c2cc(C(C)(C)C#N)on2)C1O (centres unmarked) [A65],5
4,C=CC(C)(C)c1onc(N2C(=O)C(Cl)=C(C)C2O)c1C#N (centres unmarked) [A66],5
5,CCCC1=C(Cl)C(=O)N(c2noc(C(C)(C)CC)c2C#N)C1O (centres unmarked) [A68],3

# Same assay, conditions: ECHCG, application pre-emergence, rate 1000 g/Ha, scale 0-5
row,SMILES,"Pre-emergence herbicidal damage score, ECHCG"
1,CCC1=C(Cl)C(=O)N(c2noc(C(C)C)c2C#N)C1O (centres unmarked) [A63],5
2,CCC1=C(Cl)C(=O)N(c2cc(C(C)(C)C#N)on2)C1O (centres unmarked) [A64],5
3,CCCC1=C(Cl)C(=O)N(c2cc(C(C)(C)C#N)on2)C1O (centres unmarked) [A65],5
4,C=CC(C)(C)c1onc(N2C(=O)C(Cl)=C(C)C2O)c1C#N (centres unmarked) [A66],5
5,CCCC1=C(Cl)C(=O)N(c2noc(C(C)(C)CC)c2C#N)C1O (centres unmarked) [A68],5

# Same assay, conditions: SETFA, application pre-emergence, rate 1000 g/Ha, scale 0-5
row,SMILES,"Pre-emergence herbicidal damage score, SETFA"
1,CCC1=C(Cl)C(=O)N(c2noc(C(C)C)c2C#N)C1O (centres unmarked) [A63],5
2,CCC1=C(Cl)C(=O)N(c2cc(C(C)(C)C#N)on2)C1O (centres unmarked) [A64],5
3,CCCC1=C(Cl)C(=O)N(c2cc(C(C)(C)C#N)on2)C1O (centres unmarked) [A65],5
4,C=CC(C)(C)c1onc(N2C(=O)C(Cl)=C(C)C2O)c1C#N (centres unmarked) [A66],4
5,CCCC1=C(Cl)C(=O)N(c2noc(C(C)(C)CC)c2C#N)C1O (centres unmarked) [A68],5

# Same assay, conditions: ZEAMX, application pre-emergence, rate 1000 g/Ha, scale 0-5
row,SMILES,"Pre-emergence herbicidal damage score, ZEAMX"
1,CCC1=C(Cl)C(=O)N(c2noc(C(C)C)c2C#N)C1O (centres unmarked) [A63],3
2,CCC1=C(Cl)C(=O)N(c2cc(C(C)(C)C#N)on2)C1O (centres unmarked) [A64],1
3,CCCC1=C(Cl)C(=O)N(c2cc(C(C)(C)C#N)on2)C1O (centres unmarked) [A65],2
4,C=CC(C)(C)c1onc(N2C(=O)C(Cl)=C(C)C2O)c1C#N (centres unmarked) [A66],1
5,CCCC1=C(Cl)C(=O)N(c2noc(C(C)(C)CC)c2C#N)C1O (centres unmarked) [A68],1

# Test system: a variety of test species
# Experiment: Post-emergence herbicidal activity (glasshouse, sprayed after 8 days cultivation, evaluated after 13 days)
# Type: in vivo
# Set-up: key: 5=total damage to plant; 0=no damage to plant
# Settings: Abutilon theophrasti, rate 1000 g/Ha, scale 0-5
# Procedure, shortened: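 Damage was rated 0-5 (5 = total) 13 days after a post-emergence spray of acetone/water (50:50) plus 0.5% Tween 20 formulation. Plants were sprayed at 8 days' growth and kept at 24/16° C, 14 h light, 65% humidity, watered twice daily.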
row,SMILES,"ABUTH (Abutilon theophrasti) damage score, application post-emergence"
1,CCC1=C(Cl)C(=O)N(c2noc(C(C)C)c2C#N)C1O (centres unmarked) [A63],5
2,CCC1=C(Cl)C(=O)N(c2cc(C(C)(C)C#N)on2)C1O (centres unmarked) [A64],5
3,CCCC1=C(Cl)C(=O)N(c2cc(C(C)(C)C#N)on2)C1O (centres unmarked) [A65],5
4,C=CC(C)(C)c1onc(N2C(=O)C(Cl)=C(C)C2O)c1C#N (centres unmarked) [A66],5
5,CCCC1=C(Cl)C(=O)N(c2noc(C(C)(C)CC)c2C#N)C1O (centres unmarked) [A68],5

# Same assay, conditions: Alopecurus myosuroides, rate 1000 g/Ha, scale 0-5
row,SMILES,"ALOMY (Alopecurus myosuroides) damage score, application post-emergence"
1,CCC1=C(Cl)C(=O)N(c2noc(C(C)C)c2C#N)C1O (centres unmarked) [A63],4
2,CCC1=C(Cl)C(=O)N(c2cc(C(C)(C)C#N)on2)C1O (centres unmarked) [A64],5
3,CCCC1=C(Cl)C(=O)N(c2cc(C(C)(C)C#N)on2)C1O (centres unmarked) [A65],5
4,C=CC(C)(C)c1onc(N2C(=O)C(Cl)=C(C)C2O)c1C#N (centres unmarked) [A66],5
5,CCCC1=C(Cl)C(=O)N(c2noc(C(C)(C)CC)c2C#N)C1O (centres unmarked) [A68],5

# Same assay, conditions: Amaranthus retroflexus, rate 1000 g/Ha, scale 0-5
row,SMILES,"AMARE (Amaranthus retroflexus) damage score, application post-emergence"
1,CCC1=C(Cl)C(=O)N(c2noc(C(C)C)c2C#N)C1O (centres unmarked) [A63],5
2,CCC1=C(Cl)C(=O)N(c2cc(C(C)(C)C#N)on2)C1O (centres unmarked) [A64],5
3,CCCC1=C(Cl)C(=O)N(c2cc(C(C)(C)C#N)on2)C1O (centres unmarked) [A65],5
4,C=CC(C)(C)c1onc(N2C(=O)C(Cl)=C(C)C2O)c1C#N (centres unmarked) [A66],5
5,CCCC1=C(Cl)C(=O)N(c2noc(C(C)(C)CC)c2C#N)C1O (centres unmarked) [A68],5

# Same assay, conditions: Echinochloa crus-galli, rate 1000 g/Ha, scale 0-5
row,SMILES,"ECHCG (Echinochloa crus-galli) damage score, application post-emergence"
1,CCC1=C(Cl)C(=O)N(c2noc(C(C)C)c2C#N)C1O (centres unmarked) [A63],5
2,CCC1=C(Cl)C(=O)N(c2cc(C(C)(C)C#N)on2)C1O (centres unmarked) [A64],5
3,CCCC1=C(Cl)C(=O)N(c2cc(C(C)(C)C#N)on2)C1O (centres unmarked) [A65],5
4,C=CC(C)(C)c1onc(N2C(=O)C(Cl)=C(C)C2O)c1C#N (centres unmarked) [A66],5
5,CCCC1=C(Cl)C(=O)N(c2noc(C(C)(C)CC)c2C#N)C1O (centres unmarked) [A68],5

# Same assay, conditions: Setaria faberi, rate 1000 g/Ha, scale 0-5
row,SMILES,"SETFA (Setaria faberi) damage score, application post-emergence"
1,CCC1=C(Cl)C(=O)N(c2noc(C(C)C)c2C#N)C1O (centres unmarked) [A63],5
2,CCC1=C(Cl)C(=O)N(c2cc(C(C)(C)C#N)on2)C1O (centres unmarked) [A64],5
3,CCCC1=C(Cl)C(=O)N(c2cc(C(C)(C)C#N)on2)C1O (centres unmarked) [A65],5
4,C=CC(C)(C)c1onc(N2C(=O)C(Cl)=C(C)C2O)c1C#N (centres unmarked) [A66],5
5,CCCC1=C(Cl)C(=O)N(c2noc(C(C)(C)CC)c2C#N)C1O (centres unmarked) [A68],5

# Same assay, conditions: Zea mays, rate 1000 g/Ha, scale 0-5
row,SMILES,"ZEAMX (Zea mays) damage score, application post-emergence"
1,CCC1=C(Cl)C(=O)N(c2noc(C(C)C)c2C#N)C1O (centres unmarked) [A63],3
2,CCC1=C(Cl)C(=O)N(c2cc(C(C)(C)C#N)on2)C1O (centres unmarked) [A64],4
3,CCCC1=C(Cl)C(=O)N(c2cc(C(C)(C)C#N)on2)C1O (centres unmarked) [A65],4
4,C=CC(C)(C)c1onc(N2C(=O)C(Cl)=C(C)C2O)c1C#N (centres unmarked) [A66],3
5,CCCC1=C(Cl)C(=O)N(c2noc(C(C)(C)CC)c2C#N)C1O (centres unmarked) [A68],1
